Results: patent US9708325B2, “Sulfonimidoylpurinone compounds and derivatives for the treatment and prophylaxis of virus infection” (Hoffmann-La Roche Inc., priority 2015, dated 2017)
pEC50: −log10 of the molar value. Values after ≈ are worked out from the molar mass of the structure shown. Where two headings read alike, the source gives them in different places.

How the values were obtained:
[1] = Metabolic stability in human liver microsomes; conditions: 1 μM test compound, 0.5 mg/mL microsomal protein; 6.15 mL/min/kg is the limitation of assay sensitivity
Experimental: The human microsomal stability assay is used for early assessment of metabolic stability of a test compound in human liver microsomes.
Human liver microsomes (Cat. NO.: 452117, Corning, USA; Cat. NO.: H2610, Xenotech, USA) were preincubated with test compound for 10 minutes at 37° C. in 100 mM potassium phosphate buffer, pH 7.4. The reactions were initiated by adding NADPH regenerating system. The final incubation mixtures contained 1 μM test compound, 0.5 mg/mL liver microsomal protein, 1 mM MgCL2, 1 mM NADP, 1 unit/mL isocitric dehydrogenase and 6 mM isocitric acid in 100 mM potassium phosphate buffer, pH 7.4. After incubation times of 0, 3, 6, 9, 15 and 30 minutes at 37° C., 300 μL of cold ACN (including internal standard) was added to 100 μL incubation mixture to terminate the reaction. Following precipitation and centrifugation, the amount of compound remaining in the samples were determined by LC-MS/MS. Controls of no NADPH regenerating system at zero and 30 minutes were also prepared and analyzed.

[2] = test system: Salmonella typhimurium tester strains (TA1535, TA97, TA98, TA100, and TA102); assay: Ames microsuspension assay; assay type: cell-based; conditions: five strains, absence and presence of S9
Experimental: The Ames microsuspension assay examines if a compound causes DNA mutations. The method was based on a modified pre-incubation version described by Kado et al (see references: B. N. Ames, J. McCann, E. Yamasaki, Mutation Res. 1975, 31, 347-364 N.Y. Kado, D. Langley, and E. Eisenstadt, Mutation Res. 1983, 121, 25-32). Five Salmonella typhimurium tester strains (TA1535, TA97, TA98, TA100, and TA102) were treated with the test compound in absence and in presence of an exogenous metabolic activation system (S9). The bacteria were pre-incubated for 1 h, the pre-incubation volume is 210 μL (100 μL of overnight culture, 100 μL of S9 mix (10% S9) or 100 μL phosphate buffer, and 10 μL test compound solution). The overnight cultures were resuspended for the test in cold phosphate buffer. The S9 mix contains potassium chloride, magnesium chloride, sodium phosphate buffered saline, NADP^+ and glucose-6-phosphate. The test tubes are incubated and shaken for 60 minutes at 37° C. 2.2 mL soft agar supplemented with L-histidine and biotin was added afterwards and the content of the tubes were mixed and poured on Vogel-Bonner minimal agar plates.
Three replicate plates for the test compound and negative control or two replicate plates for the positive controls were incubated at 37° C., upside down, for 2 days. Colonies were counted electronically using an automatic image analysis system after having inspected the background lawn for signs of toxicity.
S9 is an in vitro metabolic system which is obtained from liver homogenates by centrifuging them at 9000 g for 20 minutes. It contains CYP450 isoforms, phase-II metabolic enzymes, etc. In the Ames microsuspension assay test, S9 is used to assess mutagenicity of compounds, some of which require metabolic activation to become mutagenic.
Criteria of the Ames microsuspension assay: a positive result is defined as a reproducible, dose-related increase in the number of revertant colonies in at least one of the strains. For TA1535 and TA98, the positive threshold is a 2-fold increase over control. For TA97, TA100 and TA102, the threshold is a 1.5-fold increase.

LYSA solubility = assay type: physicochemical; conditions: for solubility thermodynamic: 0.05 M phosphate buffer, pH 6.5, aqueous buffer, thermodynamic from solid; for LYSA: 0.05 M phosphate buffer (pH 6.5)
Experimental: LYSA solubility assay is used to determine the aqueous solubility of a compound. Samples were prepared in duplicate from 10 mM DMSO stock solution. […] After one night, the solutions were filtered using a microtiter filter plate. Then the filtrate and its 1/10 dilution were analyzed by HPLC-UV.

hERG channel = hERG channel (Homo sapiens (Human), UniProt Q12809); assay: hERG channel inhibition assay (patch-clamp, CHOhERG cells); assay type: cell-based
Experimental: The hERG K^+ channels were cloned in humans and stably expressed in a CHO (Chinese hamster ovary) cell line. CHOhERG cells were used for patch-clamp (voltage-clamp, whole-cell) experiments. Cells were stimulated by a voltage pattern to activate hERG channels and conduct IKhERG currents (rapid delayed outward rectifier potassium current of the hERG channel). […] Thereafter, the test compound was added to the preparation at increasing concentrations. For each concentration, an attempt was made to reach a steady-state effect, usually, this was achieved within 3-10 min at which time the next highest concentration was applied. The amplitude and kinetics of IKhERG are recorded in each concentration of the drug which were compared to the control values (taken as 100%). (references: Redfern W S, Carlsson L, Davis A S, Lynch W G, MacKenzie I, Palethorpe S, Siegl P K, Strang I, Sullivan A T, Wallis R, Camm A J, Hammond T G. 2003; Relationships between preclinical cardiac electrophysiology, clinical QT interval prolongation and torsade de pointes for a broad range of drugs: evidence for a provisional safety margin in drug development. Cardiovasc. Res. 58:32-45, Sanguinetti M C, Tristani-Firouzi M. 2006; hERG potassium channels and cardiac arrhythmia. Nature 440:463-469, Webster R, Leishman D, Walker D. 2002; Towards a drug concentration effect relationship for QT prolongation and torsades de pointes. Curr. Opin. Drug Discov. Devel. 5:116-26).

human TLR8 = human TLR8 (Homo sapiens (Human), UniProt Q9NR97); assay: HEK-Blue-hTLR8 cells assay and selectivity index; assay type: cell-based; conditions: for Selective index: EC50(TLR8) value/EC50(TLR7) value
Experimental: (§1) A stable HEK-Blue-hTLR8 cell line was purchased from InvivoGen (Cat.#: HEK-Blue-htlr8, San Diego, Calif., USA). These cells were designed for studying the stimulation of human TLR8 by monitoring the activation of NF-κB. […] Therefore the reporter expression was regulated by the NF-κB promoter upon stimulation of human TLR8 for 20 hrs. The cell culture supernatant SEAP reporter activity was determined using QUANTI-Blue™ kit (Cat.#: rep-qb1, Invivogen, San Diego, Ca, USA) at a wavelength of 640 nm, a detection medium that turns purple or blue in the presence of alkaline phosphatase.
(§2) HEK-Blue-hTLR8 cells were incubated at a density of 250,000˜450,000 cells/mL in a volume of 180 μL in a 96-well plate in Dulbecco's Modified Eagle's medium (DMEM) containing 4.5 g/L glucose, 50 U/mL penicillin, […], […], 2 mM L-glutamine, 10% (V/V) heat-inactivated fetal bovine serum for 24 hrs. Then the HEK-Blue-hTLR8 cells were incubated with addition of 20 μL test compound in a serial dilution in the presence of final DMSO at 1% and perform incubation under 37° C. in a CO2 incubator for 20 hrs. Then 20 μL of the supernatant from each well was incubated with 180 μL Quanti-blue substrate solution at 37° C. for 2 hours and the absorbance was read at 620˜655 nm using a spectrophotometer. The signalling pathway that TLR8 activation leads to downstream NF-κB activation has been widely accepted, and therefore similar reporter assay was also widely used for evaluating TLR8 agonist (Tsuneyasu Kaisho and Takashi Tanaka, Trends in Immunology, Volume 29, Issue 7, July 2008, […]; Hiroaki Hemmi et al, Nature Immunology 3, 196-200 (2002)).
The ratio of TLR8 agonism activity compared to TLR7 agonism activity was defined as the selectivity index (EC50 (TLR8) value/EC50(TLR7) value) and calculated accordingly.

human TLR7 = human TLR7 (Homo sapiens (Human), UniProt Q9NYK1); assay: HEK-Blue-hTLR7 cells assay (SEAP reporter); assay type: cell-based; conditions: 20 hrs, read-out: HEK-Blue-hTLR7 (EC50 (μM))
Experimental: as §1, with “HEK-Blue-hTLR7” for “HEK-Blue-hTLR8”, “hkb-htlr7,” for “HEK-Blue-htlr8,”, “TLR7” for “TLR8”
as §2, with “HEK-Blue-hTLR7 cells” for “HEK-Blue-hTLR8 cells”, “the HEK-Blue-hTLR-7” for “the HEK-Blue-hTLR8”, “2 hrs” for “2 hours”, “that TLR7” for “that TLR8”, “evaluating TLR7” for “evaluating TLR8”

[3] = Single dose PK after 1 mg/kg intravenous dosing to rat; assay type: in vivo, Male Wister-Han Rats; conditions: IV 1 mpk; for concentration at 4 h: read-out: Mean plasma concentration
Experimental: The single dose PK in Male Wister-Han Rats was performed to assess pharmacokinetic properties of tested compounds. Two groups of animals were dosed via bolus intravenous (IV) of the respective compound. Blood samples (approximately 20 μL) were collected via Jugular vein or an alternate site at 5 min, 15 min, 30 min, 1 hr, 2 hr, 4 hr, 7 hr and 24 hr post-dose for IV group. Blood samples were placed into tubes containing EDTA-K2 anticoagulant and centrifuged at 5000 rpm for 6 min at 4° C. to separate plasma from the samples. Following centrifugation, the resulting plasma was transferred to clean tubes for bioanalysis on LC/MS/MS. The pharmacokinetic parameters were calculated using non-compartmental module of WinNonlin® Professional 6.2. […] Therefore, compounds of present invention potentially could lead to less dose frequency and lower dose in clinical application.

human TLR8, sequence (Q9NR97 27-1041): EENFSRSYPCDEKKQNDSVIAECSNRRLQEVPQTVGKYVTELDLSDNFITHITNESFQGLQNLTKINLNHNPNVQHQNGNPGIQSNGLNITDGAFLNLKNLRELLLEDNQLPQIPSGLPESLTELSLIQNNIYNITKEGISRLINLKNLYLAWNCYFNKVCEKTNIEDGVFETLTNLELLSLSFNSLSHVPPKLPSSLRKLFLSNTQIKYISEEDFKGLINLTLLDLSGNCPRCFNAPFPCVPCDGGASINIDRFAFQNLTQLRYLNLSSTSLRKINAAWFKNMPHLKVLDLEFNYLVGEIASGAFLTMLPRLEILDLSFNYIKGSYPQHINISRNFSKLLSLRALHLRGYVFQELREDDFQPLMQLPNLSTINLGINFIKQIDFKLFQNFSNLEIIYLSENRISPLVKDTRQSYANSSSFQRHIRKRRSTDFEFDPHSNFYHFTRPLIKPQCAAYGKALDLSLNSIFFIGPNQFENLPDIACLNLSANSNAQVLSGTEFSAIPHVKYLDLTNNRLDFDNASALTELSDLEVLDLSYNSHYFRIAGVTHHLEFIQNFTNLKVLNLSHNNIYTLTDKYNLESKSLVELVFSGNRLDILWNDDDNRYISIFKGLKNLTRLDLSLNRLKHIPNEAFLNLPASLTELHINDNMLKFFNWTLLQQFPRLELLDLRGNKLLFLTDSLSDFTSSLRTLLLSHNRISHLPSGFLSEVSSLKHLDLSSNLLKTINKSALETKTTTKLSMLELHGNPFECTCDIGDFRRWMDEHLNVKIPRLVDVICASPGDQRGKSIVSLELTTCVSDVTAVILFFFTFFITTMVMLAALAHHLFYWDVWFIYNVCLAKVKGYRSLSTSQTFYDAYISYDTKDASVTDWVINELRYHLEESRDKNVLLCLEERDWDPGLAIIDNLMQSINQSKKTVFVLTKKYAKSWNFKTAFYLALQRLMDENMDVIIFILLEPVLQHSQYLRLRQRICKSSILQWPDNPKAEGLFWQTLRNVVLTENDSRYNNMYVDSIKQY
human TLR7, sequence (Q9NYK1 27-1049): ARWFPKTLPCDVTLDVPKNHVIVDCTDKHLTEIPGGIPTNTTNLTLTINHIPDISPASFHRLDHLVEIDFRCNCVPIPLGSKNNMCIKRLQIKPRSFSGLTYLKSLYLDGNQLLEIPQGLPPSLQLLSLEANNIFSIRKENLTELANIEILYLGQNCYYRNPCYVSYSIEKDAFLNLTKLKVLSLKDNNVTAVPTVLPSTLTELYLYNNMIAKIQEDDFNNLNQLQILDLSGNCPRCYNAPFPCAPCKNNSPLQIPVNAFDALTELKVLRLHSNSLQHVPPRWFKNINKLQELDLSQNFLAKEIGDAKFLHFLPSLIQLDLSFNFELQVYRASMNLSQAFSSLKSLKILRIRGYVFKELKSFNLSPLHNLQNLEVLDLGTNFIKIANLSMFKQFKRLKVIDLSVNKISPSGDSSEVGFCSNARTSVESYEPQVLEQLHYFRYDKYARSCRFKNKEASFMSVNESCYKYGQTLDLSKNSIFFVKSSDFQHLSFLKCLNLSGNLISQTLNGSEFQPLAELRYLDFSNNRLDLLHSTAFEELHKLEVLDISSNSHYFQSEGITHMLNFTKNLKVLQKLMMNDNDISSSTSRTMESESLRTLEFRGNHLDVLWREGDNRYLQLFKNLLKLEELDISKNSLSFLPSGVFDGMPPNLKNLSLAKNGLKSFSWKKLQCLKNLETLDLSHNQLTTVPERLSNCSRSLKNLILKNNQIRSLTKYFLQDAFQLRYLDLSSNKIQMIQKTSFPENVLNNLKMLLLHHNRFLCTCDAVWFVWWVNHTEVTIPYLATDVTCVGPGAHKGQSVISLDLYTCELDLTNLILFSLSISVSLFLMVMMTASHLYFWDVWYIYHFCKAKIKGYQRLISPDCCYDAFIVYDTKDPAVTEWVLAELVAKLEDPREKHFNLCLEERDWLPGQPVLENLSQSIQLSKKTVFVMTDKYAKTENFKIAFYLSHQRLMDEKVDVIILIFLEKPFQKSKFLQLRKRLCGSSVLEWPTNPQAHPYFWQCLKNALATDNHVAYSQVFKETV
hERG channel, sequence (Q12809 whole entry): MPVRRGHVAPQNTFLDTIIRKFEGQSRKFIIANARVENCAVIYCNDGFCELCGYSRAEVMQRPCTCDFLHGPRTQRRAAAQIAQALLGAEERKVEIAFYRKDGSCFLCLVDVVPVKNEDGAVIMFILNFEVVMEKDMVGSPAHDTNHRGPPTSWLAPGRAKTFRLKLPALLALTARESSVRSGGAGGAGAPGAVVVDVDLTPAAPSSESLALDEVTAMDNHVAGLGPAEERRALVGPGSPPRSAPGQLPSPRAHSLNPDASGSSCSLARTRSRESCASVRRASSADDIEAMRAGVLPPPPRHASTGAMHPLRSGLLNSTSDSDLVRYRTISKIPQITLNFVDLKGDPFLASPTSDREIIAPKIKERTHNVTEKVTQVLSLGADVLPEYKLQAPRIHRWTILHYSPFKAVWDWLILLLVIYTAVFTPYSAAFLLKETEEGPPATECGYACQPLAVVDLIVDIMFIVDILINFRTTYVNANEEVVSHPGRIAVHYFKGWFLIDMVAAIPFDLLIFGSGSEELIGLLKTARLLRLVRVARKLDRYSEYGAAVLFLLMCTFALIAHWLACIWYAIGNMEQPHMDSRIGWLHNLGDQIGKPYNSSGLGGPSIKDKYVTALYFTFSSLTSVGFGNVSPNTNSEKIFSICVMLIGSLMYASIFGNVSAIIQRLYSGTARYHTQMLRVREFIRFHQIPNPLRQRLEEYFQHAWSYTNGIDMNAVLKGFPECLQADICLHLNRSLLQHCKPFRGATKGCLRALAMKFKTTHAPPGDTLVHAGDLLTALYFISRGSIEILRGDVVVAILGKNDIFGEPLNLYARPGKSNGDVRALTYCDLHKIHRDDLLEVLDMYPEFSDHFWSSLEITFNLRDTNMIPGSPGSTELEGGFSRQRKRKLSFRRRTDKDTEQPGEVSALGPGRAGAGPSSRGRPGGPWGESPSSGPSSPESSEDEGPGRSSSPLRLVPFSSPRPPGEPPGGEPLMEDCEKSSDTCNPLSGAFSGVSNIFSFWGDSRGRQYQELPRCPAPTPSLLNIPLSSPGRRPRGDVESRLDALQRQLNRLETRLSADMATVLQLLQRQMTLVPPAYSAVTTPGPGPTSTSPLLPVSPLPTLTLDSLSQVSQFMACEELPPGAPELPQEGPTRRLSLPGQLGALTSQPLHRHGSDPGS

SMILES | Ames result [2] | solubility thermodynamic (LYSA solubility) | LYSA (LYSA solubility) | pEC50 (human TLR8) | Selective index (human TLR8) | EC50 (human TLR7) | other results
CS(=N)(=O)c1nc(N)c2[nH]c(=O)n(Cc3ccccc3)c2n1 (single isomer, unassigned) [Example 1-B, 6-Amino-9-benzyl-2-(methylsulfonimidoyl)-7H-purin-8-one] | negative | 98 µg/mL (≈ 308 µM) | – | – | – | – | Human Liver Microsome Clearance [1]: <6.15 mL/min/kg
CCCS(=N)(=O)c1nc(N)c2[nH]c(=O)n(Cc3ccc(C)cc3)c2n1 (single isomer, unassigned) [Example 29-B, 6-Amino-2-(propylsulfonimidoyl)-9-(p-tolylmethyl)-7H-purin-8-one] | negative | – | 11 µg/mL | – | – | – | Safety ratio (hERG IC20/EC50) (hERG channel; hERG IC20/EC50): >546; IC20 (hERG channel; read-out: hERG IC20): > 10 µM
CS(=N)(=O)c1nc(N)c2[nH]c(=O)n(Cc3ccc(Cl)cc3)c2n1 (stereo not drawn) [Example 13, 6-Amino-9-[(4-chlorophenyl)methyl]-2-(methylsulfonimidoyl)-7H-purin-8-one] | – | 10 µg/mL (≈ 28.3 µM) | – | 3.52 | 6977 | 0.043 µM | –
CCS(=N)(=O)c1nc(N)c2[nH]c(=O)n(Cc3ccc(Cl)cc3)c2n1 (stereo not drawn) [Example 70, 6-Amino-9-[(4-chlorophenyl)methyl]-2-(ethylsulfonimidoyl)-7H-purin-8-one] | – | 7 µg/mL (≈ 19.1 µM) | – | 4.05 | 1579 | 0.057 µM | –
CS(=O)(=O)c1nc(N)c2[nH]c(=O)n(Cc3ccccc3)c2n1 [Example S-1, reference compound] | – | – | 0.5 µg/mL | – | >2703 | 0.37 µM | pEC50 (human TLR8; HEK-Blue-hTLR8 cells, SEAP reporter, 20 hrs, read-out: HEK Blue hTLR-8 EC50): < 3.00; AUC0-inf [3]: 0.201 µM·h; CL [3]: 261 mL/min/kg; CO [3]: 534 nM; concentration at 4 h ([3]; 0.083 h): 534 nM; concentration at 4 h ([3]; 0.25 h): 236 nM; concentration at 4 h ([3]; 0.5 h): 125 nM; concentration at 4 h ([3]; 1 h): 38 nM; concentration at 4 h ([3]; 2 h): 9 nM
